Results as given in PubChem BioAssay AID1919017 (Molecular Pharmacology Branch, DTP, NCI, 2023).

Tested on: SW1271 complex spheroids with HUVEC/MSC, growth, % test/control
Experiment: Anticancer human tumor SW1271 cell line growth inhibition [AhR];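 further: spheroids exposed to agents for 7 days before readout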
Conditions: for IC50: curve of first compound; for viability, T/C: stronger effect = lower value
Excerpt: Multicellular complex tumor spheroid response to aryl hydrocarbon receptor antagonists in combination with a variety of drugs and investigational agents in selected tumor cell lines
The current study was undertaken to assess response to aryl hydrocarbon receptor antagonists in combination with standard-of-care drugs and investigational agents in solid tumor complex spheroid models. Complex spheroids include a stromal component modeled by human endothelial cells (HUVEC) and fibroblasts modeled by human mesenchymal stem cells (MSCs). The concentration ranges selected for each drug and investigational agent were based upon clinically achievable concentrations if the clinical Cmax of the agent was known.
Compounds. The drugs and investigational agents: BAY 2416964 (NSC825713), GNF351 (NSC835774), CH-223191 (NSC835775), CPI-455 (NSC825282), aza-TdCyd (NSC777586), decitabine (NSC127716), belinostat (NSC758774), entinostat (NSC756642), pevonedistat (NSC761192), tazemetostat (NSC777109), talazoparib (NSC765396), olaparib (NSC753686), selinexor (NSC780203), nedisertib (M3814, NSC802822), bortezomib (NSC756655), venetoclax (NSC766270), doxorubicin (NSC123127), elimusertib (BAY189344, NSC800525), ceralasertib (AZD6738, NSC777638), TAK-243 (NSC785004), alisertib (NSC759677), etoposide (NSC141540), topotecan (NSC609699), eribulin (NSC707389), gemcitabine (NSC613327), carboplatin (NSC241240), cisplatin (NSC119875), and SN-38 (NSC673596) were obtained from the National Cancer Institute (NCI) Developmental Therapeutics Program Chemical Repository (32). The FDA-approved anticancer drug set is available from the Developmental Therapeutics Program at https://dtp.cancer.gov/organization/dscb/obtaining/available plates.htm. […] The stock solutions were prepared in dimethyl sulfoxide (DMSO, Sigma-Aldrich, St. Louis, MO, cat. D2650), except for the platinum compounds which were prepared in saline (Quality Biological, Gaithersburg, MD, cat. 114-055-101), at 800-fold the tested concentration and stored at -70 degrees C prior to their use. All drugs and investigational agents were tested over a range starting from a high concentration at or near the clinical Cmax and decreasing in half-log increments. If the clinical Cmax for an agent had not been determined, the highest concentration tested was 10 microM (Table 1).
Cell Culture. All cells were maintained in an incubator at 37 degrees C and 5% CO2 with 95% humidity. The PDC lines were cultured according to standard operating procedures established by the NCI PDMR (https://pdmr.cancer.gov). Briefly, all PDCs were thawed and cultured in Matrigel-coated flasks prepared with a working solution of 1X Ham's F-12 nutrient mix, without supplementation (Invitrogen, Waltham, MA, cat. 11765054), 100 U/mL penicillin-streptomycin (Invitrogen, cat. 15140122), and 2.5% Matrigel (Corning Inc., Corning, NY, cat. 354248) for the first three passages. All PDCs were cultured in complete DMEM/F-12 media containing advanced DMEM/F-12 (Invitrogen, cat. 12634028), 4.9% defined fetal bovine serum, heat inactivated (HyClone Laboratories Inc., Logan, UT, cat. SH30070.03HI), 389 ng/mL hydrocortisone (Sigma-Aldrich, cat. H4001), 9.7 ng/mL human EGF recombinant protein (Invitrogen, cat. PHG0313), 23.4 microg/mL adenine (Sigma-Aldrich, cat. A2786), 97.3 U/mL penicillin-streptomycin (Invitrogen, cat. 15140122), 1.9 mM L-glutamine (Invitrogen, cat. 25030081), and 9.7 microM Y-27632 dihydrochloride (Tocris Bioscience, Bristol, United Kingdom, cat. 1254). The PDCs were cultured in complete DMEM/F12 media without 10 microM Y-27632 dihydrochloride for at least two passages prior to the screen. The established cell lines NCI-H1341 and […] were cultured in DMEM/F-12, HEPES (Invitrogen, cat. 11330032), 5% defined fetal bovine serum (HyClone Laboratories Inc., cat. SH30070.03), ITS premix universal culture supplement [insulin (5 microg/mL), transferrin (5 microg/mL), and selenious acid (5 ng/mL)] […]

[1] = second compound 0.1 µM, first compound 0.0316 µM
[2] = second compound 0.1 µM, first compound 0.1 µM
[3] = second compound 0.1 µM, first compound 0.316 µM
[4] = second compound 0.1 µM, first compound 1 µM
[5] = second compound 0.1 µM, first compound 3.16 µM
[6] = second compound 0.1 µM, first compound 10 µM
[7] = second compound 0.316 µM, first compound 0.0316 µM
[8] = second compound 0.316 µM, first compound 0.1 µM
[9] = second compound 0.316 µM, first compound 0.316 µM
[10] = second compound 0.316 µM, first compound 1 µM
[11] = second compound 0.316 µM, first compound 3.16 µM
[12] = second compound 0.316 µM, first compound 10 µM
[13] = second compound 1 µM, first compound 0.0316 µM
[14] = second compound 1 µM, first compound 0.1 µM
[15] = second compound 1 µM, first compound 0.316 µM
[16] = second compound 1 µM, first compound 1 µM
[17] = second compound 1 µM, first compound 3.16 µM
[18] = second compound 1 µM, first compound 10 µM
[19] = second compound 3.16 µM, first compound 0.0316 µM
[20] = second compound 3.16 µM, first compound 0.1 µM
[21] = second compound 3.16 µM, first compound 0.316 µM
[22] = second compound 3.16 µM, first compound 1 µM
[23] = second compound 3.16 µM, first compound 3.16 µM
[24] = second compound 3.16 µM, first compound 10 µM
[25] = second compound 10 µM, first compound 0.0316 µM
[26] = second compound 10 µM, first compound 0.1 µM
[27] = second compound 10 µM, first compound 0.316 µM
[28] = second compound 10 µM, first compound 1 µM
[29] = second compound 10 µM, first compound 3.16 µM
[30] = second compound 10 µM, first compound 10 µM

| Compound | IC50 (second compound 0.1 µM) [nM] | IC50 (second compound 0.316 µM) [nM] | IC50 (second compound 1 µM) [nM] | IC50 (second compound 3.16 µM) [nM] | IC50 (second compound 10 µM) [nM] | viability, T/C [1] [%] | viability, T/C [2] [%] | viability, T/C [3] [%] | viability, T/C [4] [%] | viability, T/C [5] [%] | viability, T/C [6] [%] | viability, T/C [7] [%] | viability, T/C [8] [%] | viability, T/C [9] [%] | viability, T/C [10] [%] | viability, T/C [11] [%] | viability, T/C [12] [%] | viability, T/C [13] [%] | viability, T/C [14] [%] | viability, T/C [15] [%] | other results |
| --- | --- | --- | --- | --- | --- | --- | --- | --- | --- | --- | --- | --- | --- | --- | --- | --- | --- | --- | --- | --- | --- |
| Nc1ccccc1NC(=O)c1ccc(CNC(=O)OCc2cccnc2)cc1 + CC(CO)NC(=O)c1cc(-c2ccc(Cl)cc2)nn(-c2cnn(C)c2)c1=O | 1040 | 838 | 676 | 1000 | 294 | 92.2 | 89.6 | 78.5 | 43 | 34.8 | 10.7 | 103 | 85.2 | 67.3 | 41.4 | 35 | 9.29 | 87.7 | 82 | 60.4 | viability, T/C [16]: 40.8%; viability, T/C [17]: 30.2%; viability, T/C [18]: 10.4%; viability, T/C [19]: 65.2%; viability, T/C [20]: 64.7%; viability, T/C [21]: 65.5%; viability, T/C [22]: 44.9%; viability, T/C [23]: 34.5%; viability, T/C [24]: 11%; viability, T/C [25]: 70.2%; viability, T/C [26]: 63%; viability, T/C [27]: 43.5%; viability, T/C [28]: 43.6%; viability, T/C [29]: 19%; viability, T/C [30]: 11.4% |
| O=C(C=Cc1cccc(S(=O)(=O)Nc2ccccc2)c1)NO + CC(CO)NC(=O)c1cc(-c2ccc(Cl)cc2)nn(-c2cnn(C)c2)c1=O | 1200 | 768 | 1500 | 914 | 793 | 98.4 | 92.5 | 75.4 | 57.9 | 24.7 | 9.02 | 92.4 | 87.6 | 71.1 | 45.5 | 16.6 | 11.7 | 85.9 | 80.8 | 75.5 | viability, T/C [16]: 63%; viability, T/C [17]: 28.4%; viability, T/C [18]: 9.03%; viability, T/C [19]: 85%; viability, T/C [20]: 73.1%; viability, T/C [21]: 65.2%; viability, T/C [22]: 51.4%; viability, T/C [23]: 27%; viability, T/C [24]: 10.7%; viability, T/C [25]: 90.2%; viability, T/C [26]: 76.2%; viability, T/C [27]: 54.4%; viability, T/C [28]: 57.1%; viability, T/C [29]: 26.7%; viability, T/C [30]: 9.34% |
